Calls of active or inactive are those of the source. The calls are words filed in the database; no cut-off is given here.
Assays:
[1] = test system: Mycobacterium tuberculosis; assay: Inhibition of Mycobacterium tuberculosis PKnGdeltaN mutant at 63 uM by autoradiography
[2] = test system: Mycobacterium tuberculosis; assay: Inhibition of Mycobacterium tuberculosis PKnG-I87S/A92S mutant at 25 uM by autoradiography

## NC(=O)c1c(NC(=O)C2CC2)sc2c1CCCC2
[1]
  Activity: Active
[2]
  inhibition: > 50%
